{
  "source": "ChEMBL document CHEMBL3632591",
  "about": "“Discovery and structural diversity of the hepatitis C virus NS3/4A serine protease inhibitor series leading to clinical candidate IDX320” (Bioorg Med Chem Lett, 2015)",
  "key": {"Cytochrome P450 2B6": {"target": "T1, Cytochrome P450 2B6 (Homo sapiens, UniProt P20813)", "T1 sequence (P20813 whole entry)": "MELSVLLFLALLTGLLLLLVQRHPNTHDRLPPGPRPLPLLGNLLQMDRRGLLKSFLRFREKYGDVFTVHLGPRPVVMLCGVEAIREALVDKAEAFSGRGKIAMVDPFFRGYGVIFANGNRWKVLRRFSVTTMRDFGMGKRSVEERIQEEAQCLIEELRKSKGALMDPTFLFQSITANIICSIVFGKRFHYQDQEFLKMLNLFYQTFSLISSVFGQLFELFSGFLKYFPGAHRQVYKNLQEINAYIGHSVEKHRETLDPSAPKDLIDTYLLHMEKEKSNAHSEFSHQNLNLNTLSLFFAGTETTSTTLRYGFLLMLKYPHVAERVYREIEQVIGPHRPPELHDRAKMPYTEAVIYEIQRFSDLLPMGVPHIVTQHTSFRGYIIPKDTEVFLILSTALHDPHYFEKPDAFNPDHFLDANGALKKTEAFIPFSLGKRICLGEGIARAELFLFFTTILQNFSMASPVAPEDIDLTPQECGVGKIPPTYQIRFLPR", "experiment": "Inhibition of human CYP2B6", "format": "ADME"}, "[1]": {"experiment": "Tmax in Sprague-Dawley rat at 10 mg/kg, po administered as single dose", "format": "ADME, organism-based", "settings": "in vivo"}, "Cytochrome P450 3A4": {"target": "Cytochrome P450 3A4 (Homo sapiens, UniProt P08684)", "sequence (P08684 whole entry)": "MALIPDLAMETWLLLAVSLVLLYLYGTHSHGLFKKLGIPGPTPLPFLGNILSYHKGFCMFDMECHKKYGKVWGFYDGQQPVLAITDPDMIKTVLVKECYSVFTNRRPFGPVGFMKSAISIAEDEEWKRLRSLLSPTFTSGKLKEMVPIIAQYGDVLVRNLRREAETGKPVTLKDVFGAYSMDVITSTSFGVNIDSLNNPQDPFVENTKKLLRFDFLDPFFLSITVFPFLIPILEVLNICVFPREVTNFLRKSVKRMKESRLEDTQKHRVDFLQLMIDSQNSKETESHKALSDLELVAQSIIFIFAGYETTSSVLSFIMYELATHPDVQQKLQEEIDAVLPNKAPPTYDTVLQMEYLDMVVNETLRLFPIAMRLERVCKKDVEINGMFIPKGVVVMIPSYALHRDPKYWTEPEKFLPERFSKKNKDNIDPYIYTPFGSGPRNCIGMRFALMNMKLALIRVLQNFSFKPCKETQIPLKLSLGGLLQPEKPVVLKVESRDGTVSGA", "experiment": "Inhibition of human CYP3A4", "format": "ADME"}, "Cytochrome P450 1A2": {"target": "T2, Cytochrome P450 1A2 (Homo sapiens, UniProt P05177)", "T2 sequence (P05177 whole entry)": "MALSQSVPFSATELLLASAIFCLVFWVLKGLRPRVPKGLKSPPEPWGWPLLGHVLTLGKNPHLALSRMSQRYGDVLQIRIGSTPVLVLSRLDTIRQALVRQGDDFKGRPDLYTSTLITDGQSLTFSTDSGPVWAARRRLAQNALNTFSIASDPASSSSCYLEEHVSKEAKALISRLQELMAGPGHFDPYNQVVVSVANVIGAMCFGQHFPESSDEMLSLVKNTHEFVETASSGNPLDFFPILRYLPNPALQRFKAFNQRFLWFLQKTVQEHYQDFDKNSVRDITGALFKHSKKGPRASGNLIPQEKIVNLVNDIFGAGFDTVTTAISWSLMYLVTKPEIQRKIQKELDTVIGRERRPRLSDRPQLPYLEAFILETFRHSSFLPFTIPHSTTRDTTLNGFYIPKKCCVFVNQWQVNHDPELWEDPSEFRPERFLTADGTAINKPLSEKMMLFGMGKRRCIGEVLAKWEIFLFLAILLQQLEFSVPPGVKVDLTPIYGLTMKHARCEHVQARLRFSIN", "experiment": "Inhibition of human CYP1A2", "format": "ADME"}, "[2]": {"experiment": "Cmax in Sprague-Dawley rat plasma at 2 mg/kg, iv administered as single dose measured after 8 hrs", "format": "ADME, organism-based", "parameters": "dose 2 mg/kg, route intravenous"}, "[3]": {"experiment": "Oral bioavailability in Cynomolgus monkey at 2 mg/kg administered as single dose", "format": "ADME, organism-based, Macaca fascicularis", "settings": "in vivo"}, "[4]": {"experiment": "Tmax in Sprague-Dawley rat at 2 mg/kg, iv administered as single dose", "format": "ADME, organism-based", "settings": "in vivo"}, "[5]": {"experiment": "Ratio of drug level in Sprague-Dawley rat liver to plasma at 10 mg/kg, po measured at 24 hrs", "format": "ADME, organism-based", "settings": "liver and plasma"}, "Cytochrome P450 2C9": {"target": "Cytochrome P450 2C9 (Homo sapiens, UniProt P11712)", "sequence (P11712 whole entry)": "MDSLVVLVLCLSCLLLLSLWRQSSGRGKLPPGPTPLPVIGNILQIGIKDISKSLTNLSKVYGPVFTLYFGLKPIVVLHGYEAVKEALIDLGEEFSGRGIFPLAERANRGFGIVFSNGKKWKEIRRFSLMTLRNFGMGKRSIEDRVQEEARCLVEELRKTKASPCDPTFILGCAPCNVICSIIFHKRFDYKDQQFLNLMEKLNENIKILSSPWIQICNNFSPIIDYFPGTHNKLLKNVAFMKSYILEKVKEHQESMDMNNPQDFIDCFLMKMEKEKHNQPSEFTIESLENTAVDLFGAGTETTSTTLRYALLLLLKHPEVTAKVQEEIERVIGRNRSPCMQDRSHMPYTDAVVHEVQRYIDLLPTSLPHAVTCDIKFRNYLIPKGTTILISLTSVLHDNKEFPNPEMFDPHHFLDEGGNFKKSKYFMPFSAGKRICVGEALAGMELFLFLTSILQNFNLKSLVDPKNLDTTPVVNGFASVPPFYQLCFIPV", "experiment": "Inhibition of human CYP2C9", "format": "ADME"}, "[6]": {"experiment": "Cytotoxicity against human hepatocytes", "format": "cell-based, Hepatocyte"}, "[7]": {"experiment": "Cmax in CD-1 mouse at 2 mg/kg, po administered as single dose", "format": "ADME, organism-based", "parameters": "dose 2 mg/kg, route oral", "settings": "in vivo"}, "[8]": {"experiment": "Volume of distribution in CD-1 mouse at 2 mg/kg, iv administered as single dose measured after 24 hrs", "format": "ADME, organism-based", "settings": "in vivo"}, "[9]": {"experiment": "Cmax in Cynomolgus monkey at 2 mg/kg, po administered as single dose", "format": "ADME, organism-based, Macaca fascicularis", "parameters": "dose 2 mg/kg, route oral", "settings": "in vivo"}, "[10]": {"experiment": "AUC (infinity) in Cynomolgus monkey at 2 mg/kg, iv administered as single dose", "format": "ADME, organism-based, Macaca fascicularis", "parameters": "dose 2 mg/kg, route intravenous, time infinity", "settings": "in vivo"}, "[11]": {"experiment": "Apparent permeability across human Caco2 cells", "format": "ADME, cell-based", "settings": "Caco-2"}, "[12]": {"experiment": "Tmax in CD-1 mouse at 2 mg/kg, po administered as single dose", "format": "ADME, organism-based", "settings": "in vivo"}, "[13]": {"experiment": "Plasma concentration in CD-1 mouse at 2 mg/kg, iv administered as single dose measured after 24 hrs", "format": "ADME, organism-based"}},
  "data": [
    {"compound": "COc1ccc2c(O[C@H]3CCN4C(=O)N(C)CCCCC=C[C@@H]5C[C@@]5(C(=O)NS(=O)(=O)C5(C)CC5)NC(=O)[C@@H]4C3)cc(-c3nc(C(F)(F)F)cs3)nc2c1C", "values": [
      {"measurement": "IC50", "setting": "Cytochrome P450 2B6", "result": "≥ 10", "unit": "µM"},
      {"measurement": "Tmax", "setting": "[1]", "result": 1, "unit": "h"},
      {"measurement": "IC50", "setting": "Cytochrome P450 3A4", "result": "≥ 10", "unit": "µM"},
      {"measurement": "IC50", "setting": "Cytochrome P450 1A2", "result": "≥ 10", "unit": "µM"},
      {"measurement": "Cmax", "setting": "[2]", "result": 2060, "unit": "ng/mL"},
      {"measurement": "bioavailability", "setting": "[3]", "result": 107, "unit": "%"},
      {"measurement": "Tmax", "setting": "[4]", "result": 4.8, "unit": "min"},
      {"measurement": "Kp at 24 h", "setting": "[5]", "result": 61.7},
      {"measurement": "IC50", "setting": "Cytochrome P450 2C9", "result": "≥ 10", "unit": "µM"},
      {"measurement": "CC50", "setting": "[6]", "result": "> 10", "unit": "µM"},
      {"measurement": "Cmax", "setting": "[7]", "result": 174, "unit": "ng/mL"},
      {"measurement": "Vd", "setting": "[8]", "result": 4.4, "unit": "L/kg"},
      {"measurement": "Cmax", "setting": "[9]", "result": 1030, "unit": "ng/mL"},
      {"measurement": "AUC(0-inf)", "setting": "[10]", "result": 9580, "unit": "ng·h/mL"},
      {"measurement": "Papp", "setting": "[11]", "result": 1.8, "unit": "×10⁻⁶ cm/s"},
      {"measurement": "Tmax", "setting": "[12]", "result": 2, "unit": "h"},
      {"measurement": "concentration at 24 h", "setting": "[13]", "result": 7.9, "unit": "ng/mL"}
    ]}
  ]
}
